From US9113629B2, “4-amino-6-(4-substituted-phenyl)-picolinates and 6-amino-2-(4-substituted-phenyl)-pyrimidine-4-carboxylates and their use as herbicides” (DOW AGROSCIENCES LLC, priority 2013, dated 2015)

Tested on: Key Grass and Sedge Weeds as well as Grass Crops
Test: Post-emergent Test II herbicidal activity (Table 6)
Assay type: in vivo
Conditions: Triticum aestivum, post-emergence, 336 h, TRZSS (wheat), application rate 70 g ai/ha, read-out: Visual Growth Reduction (%) 14 Days After Application, TRZSS
In short: (§1)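 Foliar application at 187 L/ha to greenhouse-grown seedlings (first or second true leaf); subirrigation thereafter. Visual 0–100% injury at 14 d relative to untreated plants.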

Compound	pest or weed control at 70 g/ha
COC(=O)c1nc(-c2ccc(Br)c(F)c2)c(C)c(N)c1Cl [Compound 112, Methyl 4-amino-6-(4-bromo-3-fluorophenyl)-3-chloro-5-methylpicolinate]	45 to 59%

Same assay, conditions: Triticum aestivum, post-emergence, 336 h, TRZSS (wheat), application rate 140 g ai/ha, read-out: Visual Growth Reduction (%) 14 Days After Application, TRZSS

Compound	pest or weed control at 140 g/ha
COC(=O)c1nc(-c2ccc(Br)c(F)c2)c(C)c(N)c1Cl [Compound 112, Methyl 4-amino-6-(4-bromo-3-fluorophenyl)-3-chloro-5-methylpicolinate]	60 to 74%

Same assay, conditions: post-emergence, 336 h, CYPES: yellow nutsedge (Cyperus esculentus), application rate 70 g ai/ha, read-out: Visual Growth Reduction (%) 14 Days After Application, CYPES

Compound	pest or weed control at 70 g/ha
COC(=O)c1nc(-c2ccc(Br)c(F)c2)c(C)c(N)c1Cl [Compound 112, Methyl 4-amino-6-(4-bromo-3-fluorophenyl)-3-chloro-5-methylpicolinate]	95 to 100%

Same assay, conditions: post-emergence, 336 h, CYPES: yellow nutsedge (Cyperus esculentus), application rate 140 g ai/ha, read-out: Visual Growth Reduction (%) 14 Days After Application, CYPES

Compound	pest or weed control at 140 g/ha
COC(=O)c1nc(-c2ccc(Br)c(F)c2)c(C)c(N)c1Cl [Compound 112, Methyl 4-amino-6-(4-bromo-3-fluorophenyl)-3-chloro-5-methylpicolinate]	95 to 100%

Same assay, conditions: post-emergence, 336 h, DIGSA: crabgrass (Digitaria sanguinalis), application rate 70 g ai/ha, read-out: Visual Growth Reduction (%) 14 Days After Application, DIGSA

Compound	pest or weed control at 70 g/ha
COC(=O)c1nc(-c2ccc(Br)c(F)c2)c(C)c(N)c1Cl [Compound 112, Methyl 4-amino-6-(4-bromo-3-fluorophenyl)-3-chloro-5-methylpicolinate]	60 to 74%

Same assay, conditions: post-emergence, 336 h, DIGSA: crabgrass (Digitaria sanguinalis), application rate 140 g ai/ha, read-out: Visual Growth Reduction (%) 14 Days After Application, DIGSA

Compound	pest or weed control at 140 g/ha
COC(=O)c1nc(-c2ccc(Br)c(F)c2)c(C)c(N)c1Cl [Compound 112, Methyl 4-amino-6-(4-bromo-3-fluorophenyl)-3-chloro-5-methylpicolinate]	60 to 74%

Same assay, conditions: post-emergence, 336 h, ECHCG: barnyardgrass (Echinochloa crus-galli), application rate 70 g ai/ha, read-out: Visual Growth Reduction (%) 14 Days After Application, ECHCG

Compound	pest or weed control at 70 g/ha
COC(=O)c1nc(-c2ccc(Br)c(F)c2)c(C)c(N)c1Cl [Compound 112, Methyl 4-amino-6-(4-bromo-3-fluorophenyl)-3-chloro-5-methylpicolinate]	60 to 74%

Same assay, conditions: post-emergence, 336 h, ECHCG: barnyardgrass (Echinochloa crus-galli), application rate 140 g ai/ha, read-out: Visual Growth Reduction (%) 14 Days After Application, ECHCG

Compound	pest or weed control at 140 g/ha
COC(=O)c1nc(-c2ccc(Br)c(F)c2)c(C)c(N)c1Cl [Compound 112, Methyl 4-amino-6-(4-bromo-3-fluorophenyl)-3-chloro-5-methylpicolinate]	60 to 74%

Same assay, conditions: post-emergence, 336 h, ORYSA: rice (Oryza sativa), application rate 70 g ai/ha, read-out: Visual Growth Reduction (%) 14 Days After Application, ORYSA

Compound	pest or weed control at 70 g/ha
COC(=O)c1nc(-c2ccc(Br)c(F)c2)c(C)c(N)c1Cl [Compound 112, Methyl 4-amino-6-(4-bromo-3-fluorophenyl)-3-chloro-5-methylpicolinate]	0 to 29%

Same assay, conditions: post-emergence, 336 h, ORYSA: rice (Oryza sativa), application rate 140 g ai/ha, read-out: Visual Growth Reduction (%) 14 Days After Application, ORYSA

Compound	pest or weed control at 140 g/ha
COC(=O)c1nc(-c2ccc(Br)c(F)c2)c(C)c(N)c1Cl [Compound 112, Methyl 4-amino-6-(4-bromo-3-fluorophenyl)-3-chloro-5-methylpicolinate]	0 to 29%

Same assay, conditions: post-emergence, 336 h, SETFA: giant foxtail (Setaria faberi), application rate 70 g ai/ha, read-out: Visual Growth Reduction (%) 14 Days After Application, SETFA

Compound	pest or weed control at 70 g/ha
COC(=O)c1nc(-c2ccc(Br)c(F)c2)c(C)c(N)c1Cl [Compound 112, Methyl 4-amino-6-(4-bromo-3-fluorophenyl)-3-chloro-5-methylpicolinate]	85 to 94%

Same assay, conditions: post-emergence, 336 h, SETFA: giant foxtail (Setaria faberi), application rate 140 g ai/ha, read-out: Visual Growth Reduction (%) 14 Days After Application, SETFA

Compound	pest or weed control at 140 g/ha
COC(=O)c1nc(-c2ccc(Br)c(F)c2)c(C)c(N)c1Cl [Compound 112, Methyl 4-amino-6-(4-bromo-3-fluorophenyl)-3-chloro-5-methylpicolinate]	95 to 100%

Same assay, conditions: post-emergence, 336 h, SORVU: grain sorghum (Sorghum vulgare), application rate 70 g ai/ha, read-out: Visual Growth Reduction (%) 14 Days After Application, SORVU

Compound	pest or weed control at 70 g/ha
COC(=O)c1nc(-c2ccc(Br)c(F)c2)c(C)c(N)c1Cl [Compound 112, Methyl 4-amino-6-(4-bromo-3-fluorophenyl)-3-chloro-5-methylpicolinate]	85 to 94%

Same assay, conditions: post-emergence, 336 h, SORVU: grain sorghum (Sorghum vulgare), application rate 140 g ai/ha, read-out: Visual Growth Reduction (%) 14 Days After Application, SORVU

Compound	pest or weed control at 140 g/ha
COC(=O)c1nc(-c2ccc(Br)c(F)c2)c(C)c(N)c1Cl [Compound 112, Methyl 4-amino-6-(4-bromo-3-fluorophenyl)-3-chloro-5-methylpicolinate]	85 to 94%

Same assay, conditions: post-emergence, 336 h, ZEAMX: maize, corn (Zea mays), application rate 70 g ai/ha, read-out: Visual Growth Reduction (%) 14 Days After Application, ZEAMX

Compound	pest or weed control at 70 g/ha
COC(=O)c1nc(-c2ccc(Br)c(F)c2)c(C)c(N)c1Cl [Compound 112, Methyl 4-amino-6-(4-bromo-3-fluorophenyl)-3-chloro-5-methylpicolinate]	60 to 74%

Same assay, conditions: post-emergence, 336 h, ZEAMX: maize, corn (Zea mays), application rate 140 g ai/ha, read-out: Visual Growth Reduction (%) 14 Days After Application, ZEAMX

Compound	pest or weed control at 140 g/ha
COC(=O)c1nc(-c2ccc(Br)c(F)c2)c(C)c(N)c1Cl [Compound 112, Methyl 4-amino-6-(4-bromo-3-fluorophenyl)-3-chloro-5-methylpicolinate]	60 to 74%

Tested on: not given
Test: not given
Conditions: not given

melting point	Compound
134 to 137 °C	COC(=O)c1nc(-c2ccc(Br)c(F)c2)c(C)c(N)c1Cl [Compound 112, Methyl 4-amino-6-(4-bromo-3-fluorophenyl)-3-chloro-5-methylpicolinate]

Tested on: Key Broadleaf Weed and Crop Species
Test: Post-emergent Test II herbicidal activity (Table 5)
Assay type: in vivo
Conditions: post-emergence, 336 h; ABUTH: velvetleaf (Abutilon theophrasti); 70 g ai/ha; post-emergent; 14 days after application; read-out: Visual Growth Reduction (%) 14 Days After Application ABUTH
In short: as §1

Compound	pest or weed control at 70 g/ha
COC(=O)c1nc(-c2ccc(Br)c(F)c2)c(C)c(N)c1Cl [Compound 112, Methyl 4-amino-6-(4-bromo-3-fluorophenyl)-3-chloro-5-methylpicolinate]	95 to 100%

Same assay, conditions: post-emergence, 336 h; ABUTH: velvetleaf (Abutilon theophrasti); 140 g ai/ha; post-emergent; 14 days after application; read-out: Visual Growth Reduction (%) 14 Days After Application ABUTH

Compound	pest or weed control at 140 g/ha
COC(=O)c1nc(-c2ccc(Br)c(F)c2)c(C)c(N)c1Cl [Compound 112, Methyl 4-amino-6-(4-bromo-3-fluorophenyl)-3-chloro-5-methylpicolinate]	95 to 100%

Same assay, conditions: post-emergence, 336 h; AMARE: redroot pigweed (Amaranthus retroflexus); 70 g ai/ha; post-emergent; 14 days after application; read-out: Visual Growth Reduction (%) 14 Days After Application AMARE

Compound	pest or weed control at 70 g/ha
COC(=O)c1nc(-c2ccc(Br)c(F)c2)c(C)c(N)c1Cl [Compound 112, Methyl 4-amino-6-(4-bromo-3-fluorophenyl)-3-chloro-5-methylpicolinate]	95 to 100%

Same assay, conditions: post-emergence, 336 h; AMARE: redroot pigweed (Amaranthus retroflexus); 140 g ai/ha; post-emergent; 14 days after application; read-out: Visual Growth Reduction (%) 14 Days After Application AMARE

Compound	pest or weed control at 140 g/ha
COC(=O)c1nc(-c2ccc(Br)c(F)c2)c(C)c(N)c1Cl [Compound 112, Methyl 4-amino-6-(4-bromo-3-fluorophenyl)-3-chloro-5-methylpicolinate]	95 to 100%

Same assay, conditions: post-emergence, 336 h; BRSNN: oilseed-rape, canola (Brassica napus); 70 g ai/ha; post-emergent; 14 days after application; read-out: Visual Growth Reduction (%) 14 Days After Application BRSNN

Compound	pest or weed control at 70 g/ha
COC(=O)c1nc(-c2ccc(Br)c(F)c2)c(C)c(N)c1Cl [Compound 112, Methyl 4-amino-6-(4-bromo-3-fluorophenyl)-3-chloro-5-methylpicolinate]	85 to 94%

Same assay, conditions: post-emergence, 336 h; BRSNN: oilseed-rape, canola (Brassica napus); 140 g ai/ha; post-emergent; 14 days after application; read-out: Visual Growth Reduction (%) 14 Days After Application BRSNN

Compound	pest or weed control at 140 g/ha
COC(=O)c1nc(-c2ccc(Br)c(F)c2)c(C)c(N)c1Cl [Compound 112, Methyl 4-amino-6-(4-bromo-3-fluorophenyl)-3-chloro-5-methylpicolinate]	85 to 94%

Same assay, conditions: post-emergence, 336 h; CHEAL: lambsquarters (Chenopodium album); 70 g ai/ha; post-emergent; 14 days after application; read-out: Visual Growth Reduction (%) 14 Days After Application CHEAL

Compound	pest or weed control at 70 g/ha
COC(=O)c1nc(-c2ccc(Br)c(F)c2)c(C)c(N)c1Cl [Compound 112, Methyl 4-amino-6-(4-bromo-3-fluorophenyl)-3-chloro-5-methylpicolinate]	85 to 94%

Same assay, conditions: post-emergence, 336 h; CHEAL: lambsquarters (Chenopodium album); 140 g ai/ha; post-emergent; 14 days after application; read-out: Visual Growth Reduction (%) 14 Days After Application CHEAL

Compound	pest or weed control at 140 g/ha
COC(=O)c1nc(-c2ccc(Br)c(F)c2)c(C)c(N)c1Cl [Compound 112, Methyl 4-amino-6-(4-bromo-3-fluorophenyl)-3-chloro-5-methylpicolinate]	85 to 94%

Same assay, conditions: post-emergence, 336 h; EPHHL: wild poinsettia (Euphorbia heterophylla); 70 g ai/ha; post-emergent; 14 days after application; read-out: Visual Growth Reduction (%) 14 Days After Application EPHHL

Compound	pest or weed control at 70 g/ha
COC(=O)c1nc(-c2ccc(Br)c(F)c2)c(C)c(N)c1Cl [Compound 112, Methyl 4-amino-6-(4-bromo-3-fluorophenyl)-3-chloro-5-methylpicolinate]	0 to 29%

Same assay, conditions: post-emergence, 336 h; EPHHL: wild poinsettia (Euphorbia heterophylla); 140 g ai/ha; post-emergent; 14 days after application; read-out: Visual Growth Reduction (%) 14 Days After Application EPHHL

Compound	pest or weed control at 140 g/ha
COC(=O)c1nc(-c2ccc(Br)c(F)c2)c(C)c(N)c1Cl [Compound 112, Methyl 4-amino-6-(4-bromo-3-fluorophenyl)-3-chloro-5-methylpicolinate]	0 to 29%

Same assay, conditions: post-emergence, 336 h; HELAN: sunflower (Helianthus annuus); 70 g ai/ha; post-emergent; 14 days after application; read-out: Visual Growth Reduction (%) 14 Days After Application HELAN

Compound	pest or weed control at 70 g/ha
COC(=O)c1nc(-c2ccc(Br)c(F)c2)c(C)c(N)c1Cl [Compound 112, Methyl 4-amino-6-(4-bromo-3-fluorophenyl)-3-chloro-5-methylpicolinate]	95 to 100%

Same assay, conditions: post-emergence, 336 h; HELAN: sunflower (Helianthus annuus); 140 g ai/ha; post-emergent; 14 days after application; read-out: Visual Growth Reduction (%) 14 Days After Application HELAN

Compound	pest or weed control at 140 g/ha
COC(=O)c1nc(-c2ccc(Br)c(F)c2)c(C)c(N)c1Cl [Compound 112, Methyl 4-amino-6-(4-bromo-3-fluorophenyl)-3-chloro-5-methylpicolinate]	95 to 100%

Same assay, conditions: post-emergence, 336 h; VIOTR: wild pansy (Viola tricolor); 70 g ai/ha; post-emergent; 14 days after application; read-out: Visual Growth Reduction (%) 14 Days After Application VIOTR

Compound	pest or weed control at 70 g/ha
COC(=O)c1nc(-c2ccc(Br)c(F)c2)c(C)c(N)c1Cl [Compound 112, Methyl 4-amino-6-(4-bromo-3-fluorophenyl)-3-chloro-5-methylpicolinate]	0 to 29%

Same assay, conditions: post-emergence, 336 h; VIOTR: wild pansy (Viola tricolor); 140 g ai/ha; post-emergent; 14 days after application; read-out: Visual Growth Reduction (%) 14 Days After Application VIOTR

Compound	pest or weed control at 140 g/ha
COC(=O)c1nc(-c2ccc(Br)c(F)c2)c(C)c(N)c1Cl [Compound 112, Methyl 4-amino-6-(4-bromo-3-fluorophenyl)-3-chloro-5-methylpicolinate]	0 to 29%
